Laboratory results reported in US8415393B2, “Anti-bacterial drug targeting of genome maintenance interfaces” (Wisconsin Alumni Research Foundation, priority 2007, dated 2013).
“Also recorded” adds a separate entry of the source. Like-named read-outs stand apart in the source and are kept apart here. Where no end group is shown, it is not given here. fluorescein = fluorescein moiety attached to the N-terminus of the peptide (N-terminal fluorescein label)

How the values were obtained:
[1] = test system: E. coli 4213 (imp4213, compromised cell wall); experiment: microbe, parasite or virus in culture; assay type: cell-based; conditions: Escherichia coli
Experimental: The compromised cell wall allows the chemicals to pass through it more readily.
(§1) 100 μL of LB containing E. coli 1655, E. coli 4213, or S. aureus at A ˜0.05 OD 600 was aliquoted in 96 well plates. One μL of compound in DMSO was added to final concentrations given. Plates were incubated at 37° C. with shaking at 250 RPM. Rate of growth was calculated by determining the average change in OD/hour that took place between hours 3 and 7 (log growth phase). The graphs shown herein are plots of this bacterial growth rate (change in OD/h) against inhibitor concentration in μM.

red blood cells = experiment: In vitro hemolysis; assay type: cell-based; conditions: for % hemolysis at given concentration: 1 hour; for Hemolysis: Table 3, minimum concentration necessary to lyse red blood cells
Experimental: The identified small molecules were incubated with red blood cells to see what percentage of cells would lyse after 1 hour. Estimated hemolysis data are due to problem with reading absorbance, when the compound absorbs at the same wavelength as heme or if the compound precipitates. In such instances it is difficult to quantitate the absorbance readings; however, visual determination of how many cells have lysed can then be performed, which provides an estimate of cell lysis.

[2] = test system: HT-29 (human colorectal adenocarcinoma) cells; experiment: Mammalian cell toxicity, CellTiter-Glo cell viability assay; assay type: cell-based
Experimental: The toxicity of the identified antimicrobial candidate compounds was tested using human colorectal adenocarcinoma cells in vitro. […] The mammalian cells were tested using a CellTiter-Glo cell viability assay (Promega, Madison, Wis.).

[3] = molecular target: Exonuclease I/SSB-Ct complex (Escherichia coli, UniProt P04995); experiment: Fluorescence polarization competition: inhibition of fluorescein-SSB C-terminal peptide binding to Exonuclease I (HTS and Ki determination); conditions: for peptide binding inhibition: ExoI/SSB-Ct peptide
Sequence of Exonuclease I/SSB-Ct complex (P04995 whole entry, one chain of several): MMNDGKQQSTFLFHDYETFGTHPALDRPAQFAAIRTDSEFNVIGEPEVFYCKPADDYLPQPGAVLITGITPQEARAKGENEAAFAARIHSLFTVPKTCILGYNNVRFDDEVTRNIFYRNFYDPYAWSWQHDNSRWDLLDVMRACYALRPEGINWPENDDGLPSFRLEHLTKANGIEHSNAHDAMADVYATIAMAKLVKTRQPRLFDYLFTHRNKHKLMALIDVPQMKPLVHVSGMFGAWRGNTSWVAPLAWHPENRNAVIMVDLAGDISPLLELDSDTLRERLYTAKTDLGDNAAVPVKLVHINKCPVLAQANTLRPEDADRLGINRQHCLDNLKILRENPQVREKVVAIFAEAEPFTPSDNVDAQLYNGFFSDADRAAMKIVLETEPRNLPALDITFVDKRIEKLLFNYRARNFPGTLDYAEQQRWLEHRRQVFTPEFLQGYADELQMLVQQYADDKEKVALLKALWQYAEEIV
Experimental: Peptide binding assays were performed in solution, using the peptides from above, and Exonuclease I, in the absence or presence of various compounds. Different amounts of Exonuclease I (ExoI) were used in the peptide binding assays. […] Fluorescence polarization (FP) was measured at 25° C. in triplicate; the average FP value was plotted with standard deviation of the mean shown as error.
Concentrated Exonuclease I was dialyzed overnight into 2 liters dilution buffer (DB) (20 mM Tris pH 8.0 HCl, 100 mM NaCl, 1 mM MgCl2, and 1 mM Beta-Mercaptoethanol). […] After sitting at room temperature for 5 min, a liquid handling system was used to aliquot this solution into 384 well plates providing 30 microliters/well. One microliter of 1 mM compound was then added. The screened compounds were obtained from the ChemBridge DIVERSet library (ChemBridge Corporation, San Diego, Calif.), from the Maybridge HitFinder library (Thermo Fisher Scientific, Waltham, Mass.), from the ChemDiv library (Chemical Diversity Labs, San Diego, Calif.), or from the Known Bioactive Library—KBA01.
The FP (fluorescence polarization) values for each well were read using a (plate reader) 5 minutes after compound addition.
Increasing amounts of compound were titrated into peptide protein mixture until FP values were lowered to values given by only fluorescently labeled peptide alone. Ki values were determined using the Ki calculator for fluorescence-based competitive binding assays of Prof. Shaomeng Wang, University of Michigan (Nikolovska-Coleska et al., 2004, Anal. Biochem. 332: 261-273).

[4] = test system: Staphylococcus aureus 12598; experiment: Bacterial growth assay in LB liquid media, S. aureus; assay type: cell-based
Experimental: as §1

[5] = molecular target: T1, fluorescein-labeled SSB C-terminal peptide, fluorescein-WMDFDDDIPF (E. coli); experiment: equilibrium fluorescence anisotropy
T1 construct: also called F-WT; F-SSB-Ct
T1 peptide: fluorescein-WMDFDDDIPF

[6] = read-out: IC50 μM inhibitor, inhibition of E. coli growth
[7] = read-out: IC(50) E. coli imp4213
[8] = Staphylococcus aureus, 12598, Table 3, reduce growth 50% in liquid media, unit not given (Table 5 gives μM), read-out: IC(50) S. aureus
[9] = Staphylococcus aureus, 12598, Table 5, read-out: IC50 μM inhibitor, inhibition of S. aureus growth
[10] = HT-29 cells, CellTiter-Glo, read-out: IC50

Cc1nn(-c2nc3ccccc3s2)c(O)c1C [Compound 28, 1-(1,3-benzothiazol-2-yl)-3,4-dimethyl-1H-pyrazol-5-ol]
IC50 [1, 6]: 38 µM
IC50 [1, 7]: 38 µM
% hemolysis at given concentration (red blood cells; >800 μM): 0% >800
Hemolysis (red blood cells): >800 µM
IC50 ([2]; HT-29): > 100 µM
peptide binding inhibition [3]: did not inhibit binding

CC(C)c1cc(O)n(-c2nc3ccccc3s2)n1 [Compound 29, 1-(1,3-benzothiazol-2-yl)-3-isopropyl-1H-pyrazol-5-ol]
IC50 [1, 6]: 88 µM
IC50 [1, 7]: 88 µM
% hemolysis at given concentration (red blood cells; >800 μM): 0% >800
Hemolysis (red blood cells): >800 µM
IC50 ([2]; HT-29): > 100 µM
peptide binding inhibition [3]: did not inhibit binding

CC1=NN(c2nc3ccccc3s2)C(=O)C1 [Compound 31, 2-(1,3-benzothiazol-2-yl)-5-methyl-2,4-dihydro-3H-pyrazol-3-one]
IC50 [1, 6]: 50 to 100 µM
IC50 [1, 7]: 50 to 100 µM
% hemolysis at given concentration (red blood cells; >800 μM): 0% >800
Hemolysis (red blood cells): >800 µM
peptide binding inhibition [3]: much weaker binding; also recorded: did not inhibit binding

O=C(O)c1ccccc1Nc1cccc(C(F)(F)F)c1 [Compound 32, 2-[3-(trifluoromethyl)anilino]benzoic acid]
IC50 [1, 6]: 33 µM
IC50 [1, 7]: 33 µM
IC50 [4, 8]: 30 µM
IC50 [4, 9]: 30 µM
% hemolysis at given concentration (red blood cells; >800 μM): 0% >800
Hemolysis (red blood cells): >800 µM
IC50 [2, 10]: > 100 µM
Ki [3]: 1500 nM
Ki ([3]; Ki estimates, Table 2): 1500 nM

O=[N+]([O-])c1ccc(Oc2cc(C(F)(F)F)ccc2Cl)cc1O [Compound 37, 5-[2-chloro-5-(trifluoromethyl)phenoxy]-2-nitrophenol]
IC50 [1, 6]: 33 µM
IC50 [1, 7]: 33 µM
IC50 ([4]; Staphylococcus aureus, 12598, read-out: IC50 μM inhibitor, inhibition of S. aureus growth): 2.5 µM
IC50 ([4]; Staphylococcus aureus, 12598, read-out: IC(50) S. aureus): 2.5 µM
% hemolysis at given concentration (red blood cells; 800 μM): estimated 0% 800
Hemolysis (red blood cells): >800 µM
IC50 ([2]; HT-29): > 100 µM
Ki [3]: 700 nM
Ki ([3]; Ki estimates, Table 2): 700 nM

Cc1noc(C)c1C(=O)Nc1nc2ccc(Cl)cc2s1 [Compound 42, N-(6-chloro-1,3-benzothiazol-2-yl)-3,5-dimethyl-4-isoxazolecarboxamide]
IC50 [4, 8]: 9 µM
IC50 [4, 9]: 9 µM
% hemolysis at given concentration (red blood cells; >800 μM): 0% >800
Hemolysis (red blood cells): >800 µM
IC50 [2, 10]: 51 µM

CC1=NN(c2nc3ccc(Cl)cc3s2)C(=O)C1 [Compound 46, 1-(6-chloro-1,3-benzothiazol-2-yl)-3-methyl-4,5-dihydro-1H-pyrazol-5-one]
% hemolysis at given concentration (red blood cells; >800 μM): 0% >800
Hemolysis (red blood cells): >800 µM
IC50 [2, 10]: 55 µM
Ki [3]: 1500 nM
Ki ([3]; Ki estimates, Table 2): 1500 nM

B1: ExoI Arg148 Ala variant (enzyme)
chain: MMNDGKQQSTFLFHDYETFGTHPALDRPAQFAAIRTDSEFNVIGEPEVFYCKPADDYLPQPGAVLITGITPQEARAKGENEAAFAARIHSLFTVPKTCILGYNNVRFDDEVTRNIFYRNFYDPYAWSWQHDNSRWDLLDVMRACYALAPEGINWPENDDGLPSFRLEHLTKANGIEHSNAHDAMADVYATIAMAKLVKTRQPRLFDYLFTHRNKHKLMALIDVPQMKPLVHVSGMFGAWRGNTSWVAPLAWHPENRNAVIMVDLAGDISPLLELDSDTLRERLYTAKTDLGDNAAVPVKLVHINKCPVLAQANTLRPEDADRLGINRQHCLDNLKILRENPQVREKVVAIFAEAEPFTPSDNVDAQLYNGFFSDADRAAMKIVLETEPRNLPALDITFVDKRIEKLLFNYRARNFPGTLDYAEQQRWLEHRRQVFTPEFLQGYADELQMLVQQYADDKEKVALLKALWQYAEEIV
notes: peptide-A-site variant; also called R148A; Arg148 variant
fold weaker binding than wild-type ExoI [5]: 10 to 100 fold

B2: ExoI Arg316 Ala variant (enzyme)
chain: MMNDGKQQSTFLFHDYETFGTHPALDRPAQFAAIRTDSEFNVIGEPEVFYCKPADDYLPQPGAVLITGITPQEARAKGENEAAFAARIHSLFTVPKTCILGYNNVRFDDEVTRNIFYRNFYDPYAWSWQHDNSRWDLLDVMRACYALRPEGINWPENDDGLPSFRLEHLTKANGIEHSNAHDAMADVYATIAMAKLVKTRQPRLFDYLFTHRNKHKLMALIDVPQMKPLVHVSGMFGAWRGNTSWVAPLAWHPENRNAVIMVDLAGDISPLLELDSDTLRERLYTAKTDLGDNAAVPVKLVHINKCPVLAQANTLAPEDADRLGINRQHCLDNLKILRENPQVREKVVAIFAEAEPFTPSDNVDAQLYNGFFSDADRAAMKIVLETEPRNLPALDITFVDKRIEKLLFNYRARNFPGTLDYAEQQRWLEHRRQVFTPEFLQGYADELQMLVQQYADDKEKVALLKALWQYAEEIV
notes: peptide-A-site variant; also called R316A; Arg316 variant
fold weaker binding than wild-type ExoI [5]: 10 to 100 fold

B3: ExoI Arg338 Ala variant (enzyme)
chain: MMNDGKQQSTFLFHDYETFGTHPALDRPAQFAAIRTDSEFNVIGEPEVFYCKPADDYLPQPGAVLITGITPQEARAKGENEAAFAARIHSLFTVPKTCILGYNNVRFDDEVTRNIFYRNFYDPYAWSWQHDNSRWDLLDVMRACYALRPEGINWPENDDGLPSFRLEHLTKANGIEHSNAHDAMADVYATIAMAKLVKTRQPRLFDYLFTHRNKHKLMALIDVPQMKPLVHVSGMFGAWRGNTSWVAPLAWHPENRNAVIMVDLAGDISPLLELDSDTLRERLYTAKTDLGDNAAVPVKLVHINKCPVLAQANTLRPEDADRLGINRQHCLDNLKILAENPQVREKVVAIFAEAEPFTPSDNVDAQLYNGFFSDADRAAMKIVLETEPRNLPALDITFVDKRIEKLLFNYRARNFPGTLDYAEQQRWLEHRRQVFTPEFLQGYADELQMLVQQYADDKEKVALLKALWQYAEEIV
notes: basic ridge variant; also called R338A; Arg338 variant
fold binding defect [5]: 3 fold

B4: ExoI Asp319 Ala variant (enzyme)
chain: MMNDGKQQSTFLFHDYETFGTHPALDRPAQFAAIRTDSEFNVIGEPEVFYCKPADDYLPQPGAVLITGITPQEARAKGENEAAFAARIHSLFTVPKTCILGYNNVRFDDEVTRNIFYRNFYDPYAWSWQHDNSRWDLLDVMRACYALRPEGINWPENDDGLPSFRLEHLTKANGIEHSNAHDAMADVYATIAMAKLVKTRQPRLFDYLFTHRNKHKLMALIDVPQMKPLVHVSGMFGAWRGNTSWVAPLAWHPENRNAVIMVDLAGDISPLLELDSDTLRERLYTAKTDLGDNAAVPVKLVHINKCPVLAQANTLRPEAADRLGINRQHCLDNLKILRENPQVREKVVAIFAEAEPFTPSDNVDAQLYNGFFSDADRAAMKIVLETEPRNLPALDITFVDKRIEKLLFNYRARNFPGTLDYAEQQRWLEHRRQVFTPEFLQGYADELQMLVQQYADDKEKVALLKALWQYAEEIV
notes: also called D319A; Asp319 variant
fold binding defect [5]: 2 fold

B5: ExoI Gln311 Ala variant (enzyme)
chain: MMNDGKQQSTFLFHDYETFGTHPALDRPAQFAAIRTDSEFNVIGEPEVFYCKPADDYLPQPGAVLITGITPQEARAKGENEAAFAARIHSLFTVPKTCILGYNNVRFDDEVTRNIFYRNFYDPYAWSWQHDNSRWDLLDVMRACYALRPEGINWPENDDGLPSFRLEHLTKANGIEHSNAHDAMADVYATIAMAKLVKTRQPRLFDYLFTHRNKHKLMALIDVPQMKPLVHVSGMFGAWRGNTSWVAPLAWHPENRNAVIMVDLAGDISPLLELDSDTLRERLYTAKTDLGDNAAVPVKLVHINKCPVLAAANTLRPEDADRLGINRQHCLDNLKILRENPQVREKVVAIFAEAEPFTPSDNVDAQLYNGFFSDADRAAMKIVLETEPRNLPALDITFVDKRIEKLLFNYRARNFPGTLDYAEQQRWLEHRRQVFTPEFLQGYADELQMLVQQYADDKEKVALLKALWQYAEEIV
notes: peptide-A-site variant; also called Q311A; Gln311 variant
fold binding defect relative to wild-type ExoI [5]: 2 fold

B6: ExoI Glu150 Ala variant (enzyme)
chain: MMNDGKQQSTFLFHDYETFGTHPALDRPAQFAAIRTDSEFNVIGEPEVFYCKPADDYLPQPGAVLITGITPQEARAKGENEAAFAARIHSLFTVPKTCILGYNNVRFDDEVTRNIFYRNFYDPYAWSWQHDNSRWDLLDVMRACYALRPAGINWPENDDGLPSFRLEHLTKANGIEHSNAHDAMADVYATIAMAKLVKTRQPRLFDYLFTHRNKHKLMALIDVPQMKPLVHVSGMFGAWRGNTSWVAPLAWHPENRNAVIMVDLAGDISPLLELDSDTLRERLYTAKTDLGDNAAVPVKLVHINKCPVLAQANTLRPEDADRLGINRQHCLDNLKILRENPQVREKVVAIFAEAEPFTPSDNVDAQLYNGFFSDADRAAMKIVLETEPRNLPALDITFVDKRIEKLLFNYRARNFPGTLDYAEQQRWLEHRRQVFTPEFLQGYADELQMLVQQYADDKEKVALLKALWQYAEEIV
notes: also called E150A; Glu150 variant
fold enhanced binding relative to wild-type ExoI [5]: ~2 fold
